Consider 43 substances from US10556936B2, “Immunogenic proteins and fragments thereof from allergenic mites” (ALK-ABELLÓ A/S, priority 2016, dated 2020).

The test system of the experiment is HDM-specific T cells expanded from PBMCs of HDM-allergic individuals. Briefly: T cell reactivity of peptides: IFN/IL-5 ELISPOT on in vitro expanded HDM-specific T cells. It is filed as cell-based, human. Conditions: for SFC/donor: individual peptides 10 μg/mL; for % responder: percentage of donors that produced a response against the peptide, 10 μg/mL. Here is the method: Each sequence of an “L” cluster was aligned separately using the MEGA software tool with ClustalW. Fifteen-mer peptides overlapping by 10 amino acids were generated and the last 15-mer peptide was added when the sequence length was not divisible by 5, 14,783 unique peptides remained.
HLA class II binding predictions optimized for global coverage were performed for the seven class II alleles (HLA-DRB1*03:01, HLA-DRB1*07:01, HLA-DRB1*15:01, HLA-DRB3*01:01, HLA-DRB3*02:02, HLA-DRB4*01:01 and HLA-DRB5*01:01) using the standalone version of the IEDB class II binding prediction tool. The median consensus percentile rank was estimated from the consensus percentile ranks for the seven alleles. Further, peptides with more than ten overlapping amino acids, which appeared because several occurrences of some sequence regions were repeated multiple times in the same sequence, were eliminated (e.g. “[…]” was repeated seven times in one sequence.) Variant peptides were also removed, retaining the better peptide based on the median consensus percentile rank and conservation among the sequences within its respective cluster. Peptides with median consensus percentile rank ≤10.0 and conserved in ≥35% of sequences in the same cluster were finally selected, also including additional selected peptides chosen to maximize DRB1 allele coverage, for a grand total of 2,589 peptides.
Peptides were purchased from Mimotopes (Clayton, Victoria, Australia) or A and A (San Diego, Calif.) as crude material on a small (1-mg) scale. Individual peptides were resuspended in DMSO at a final concentration of 40 mg/mL. Peptide “megapools” of 30-65 peptides/pool were generated. Following lyophilization, each pool was reconstituted in DMSO so that each peptide was present at a concentration of 4 mg/mL. To facilitate deconvolution of positive megapools, each megapool was further broken down in 2-6 “mesopools” (259 mesopools in total), each containing 8-14 peptides. Each mesopool was then deconvoluted to identify individual positive peptides. To avoid dimerization and polymerization of peptides by intra- and intermolecular disulfide bond formation between cysteine residues, this amino acid were in some instances substituted by a serine residue in the peptides. Such peptides are herein marked with an asterisk (*).
PBMCs from European HDM-allergic individuals were recruited in the Copenhagen region (defined by clinical history of allergy to house dust mite and specific IgE to group 1 and group 2 major allergens from Der p and/or Der f and with measured specific IgE (CAP) >0.7 kU/L towards Der p/f 1 or Der p/f 2. In addition, PBMCs from 10 US HDM-allergic individuals were recruited in San Diego (defined by Der p extract IgE titers greater than 0.35 kUA/L). PBMCs were isolated from whole blood by density gradient centrifugation according to manufacturers' instructions (Ficoll-Hypaque, Amersham Biosciences, Uppsala, Sweden). Der p- and Der f-specific extract IgE titers were determined using the ImmunoCAP system (Thermo Fisher, Uppsala, Sweden). In a separate series of experiments, pooled plasma from 10 European and 10 American HDM atopic individuals from the San Diego region, respectively, was utilized to run 2D immunoblots to elucidate IgE and IgG reactivity towards the proteins, which had at least one peptide with positive T cell response.
HDM-specific T cells were expanded in vitro. Briefly, PBMCs from HDM-allergic individuals were stimulated with HDM extract (5 μg/mL) and expanded over 14-17 days with IL-2 (added every 3 days). Cells were harvested on day 14, restimulated with HDM extract (5 μg/mL), individual peptides (10 μg/mL) or peptide pools (5 μg/mL) and screened for […]/IL-5-production by ELISPOT. Criteria for positivity were 100 or 20 spot forming cells (SFCs) per 10^6 PBMCs for peptide pools or single peptides, respectively, p<0.05, and a stimulation index >2.

In the case of “EPFMINQLAALIRRE (Immunogenic fragment) [Peptide 181, fragment of A0023 Der f/p]”, the SFC/donor is given as 40 SFC/donor and the “% responder” value is 10%.
In the same order, the values of “74 (TVSLRHLFQSFEITA; Immunogenic fragment) [compound 74]” are 25 SFC/donor and 5%.
On the same counts, the results for “69 (EPIISFTSIESNKQA; Immunogenic fragment) [compound 69]” are 112 SFC/donor and 5%.
In the same order, the values of “147 (LGMQICFDMIFKTPG; Immunogenic fragment) [compound 147]” are 28 SFC/donor and 20%.
Take “61 (AMLQCRHVISESYRK; Immunogenic fragment) [compound 61]”: the SFC/donor is recorded as 5 SFC/donor and the “% responder” value was 5%.
“55 (KFMMASEDLLKKHYA; Immunogenic fragment) [compound 55]”: the SFC/donor is 5 SFC/donor and the “% responder” value came out at 5%.
For “51 (RGIVGEIIRRFEAKG; Immunogenic fragment) [compound 51]”, the SFC/donor is on record as 5 SFC/donor and the “% responder” value was 5%.
In the case of “150 (ELNSRFVYAKLRGAF; Immunogenic fragment) [compound 150]”, the SFC/donor was 21 SFC/donor and the “% responder” value was 5%.
On the same counts, the results for “105 (SLSMAMATNAALTKL; Immunogenic fragment) [compound 105]” are 9 SFC/donor and 5%.
In the same order, the values of “139 (ELNFKVYEDAAALAK; Immunogenic fragment) [compound 139]” are 16 SFC/donor and 10%.
“140 (EDGLIYNIASREKAD; Immunogenic fragment) [compound 140]”: the SFC/donor is reported as 55 SFC/donor and the “% responder” value is 5%.
For “56 (LKKHYADLAARPFFP; Immunogenic fragment) [compound 56]”, the SFC/donor was found to be 8 SFC/donor and the “% responder” value is given as 5%.
For the substance “88 (MVYSDQLIHVTSRLP; Immunogenic fragment) [compound 88]”, the SFC/donor is 3 SFC/donor and the “% responder” value was found to be 5%.
On to “100 (TLRHKTLCMTARHYN; Immunogenic fragment) [compound 100]”, for which the SFC/donor is 12 SFC/donor and the “% responder” value was 10%.
With “59 (GTEKQHVAFNYAKML; Immunogenic fragment) [compound 59]”, the SFC/donor turned out to be 80 SFC/donor and the “% responder” value came to 5%.
For “92 (GPKPEQVVQQYHNLI; Immunogenic fragment) [compound 92]”, the SFC/donor amounted to 1 SFC/donor and the “% responder” value worked out at 5%.
In the case of “76 (FKSFEIIAVEELTLG; Immunogenic fragment) [compound 76]”, the SFC/donor was 8 SFC/donor and the “% responder” value is 5%.
“48 (EQYISGVILFDETVY; Immunogenic fragment) [compound 48]”: the SFC/donor came to 326 SFC/donor and the “% responder” value amounted to 20%.
In the same order, the values of “116 (LGESVIRAARSSLQY; Immunogenic fragment) [compound 116]” are 30 SFC/donor and 15%.
Regarding “68 (DGHGIVIRGRHLLLL; Immunogenic fragment) [compound 68]”, the SFC/donor is reported as 24 SFC/donor and the “% responder” value stood at 5%.
“75 (SLRHLFKSFEIIAVE; Immunogenic fragment) [compound 75]”: the SFC/donor is recorded as 6 SFC/donor and the “% responder” value was 5%.
On to “62 (RHIINESYKKLLPKS; Immunogenic fragment) [compound 62]”, for which the SFC/donor was determined as 4 SFC/donor and the “% responder” value came to 5%.
Take “136 (DKSKKIHYQFEWKFN; Immunogenic fragment) [compound 136]”: the SFC/donor was determined as 2 SFC/donor and the “% responder” value is given as 5%.
On to “DWRNLYPRKYAFALP (Immunogenic fragment) [Peptide 186, fragment of A0023 Der f]”, for which the SFC/donor is 64 SFC/donor and the “% responder” value is 5%.
“54 (FKLVAMKFMMASEDL; Immunogenic fragment) [compound 54]”: the SFC/donor turned out to be 6 SFC/donor and the “% responder” value was determined as 5%.
For the substance “LQHFNNAIKQLNTED (Immunogenic fragment) [Peptide 189, fragment of A0023 Der f]”, the SFC/donor was 24 SFC/donor and the “% responder” value turned out to be 10%.
In the case of “135 (IIQTKLSIFNDNDKS; Immunogenic fragment) [compound 135]”, the SFC/donor stood at 3 SFC/donor and the “% responder” value came to 5%.
With “113 (LCIRWYQLGAFYSFA; Immunogenic fragment) [compound 113]”, the SFC/donor was 40 SFC/donor and the “% responder” value is on record as 15%.
As for “124 (DINYVFFRSGSIIPI; Immunogenic fragment) [compound 124]”, the SFC/donor worked out at 20 SFC/donor and the “% responder” value was determined as 10%.
In the same order, the values of “134 (TNNMLIIQTKLSIFN; Immunogenic fragment) [compound 134]” are 4 SFC/donor and 5%.
Consider “64 (LYNPLGHRLINHTVR; Immunogenic fragment) [compound 64]”, for which the SFC/donor was 6 SFC/donor and the “% responder” value is on record as 5%.
Take “142 (DKKFLFNTAVLFDRQ; Immunogenic fragment) [compound 142]”: the SFC/donor stood at 22 SFC/donor and the “% responder” value turned out to be 10%.
With “133 (QFIYTTNNMLIIQTK; Immunogenic fragment) [compound 133]”, the SFC/donor is recorded as 47 SFC/donor and the “% responder” value worked out at 5%.
On the same counts, the results for “46 (FNYLPVDVQEELRNT; Immunogenic fragment) [compound 46]” are 7 SFC/donor and 5%.
In the same order, the values of “107 (NEALKTTLNKRPFII; Immunogenic fragment) [compound 107]” are 9 SFC/donor and 5%.
“123 (YDDIDYVFVRGGSII; Immunogenic fragment) [compound 123]”: the SFC/donor is on record as 149 SFC/donor and the “% responder” value came out at 30%.
“KDSQYLQHFNNAIKQ (Immunogenic fragment) [Peptide 188, fragment of A0023 Der f]”: the SFC/donor was 24 SFC/donor and the “% responder” value was determined as 10%.
“129 (INILGVPKLPTSFKL; Immunogenic fragment) [compound 129]”: the SFC/donor turned out to be 24 SFC/donor and the “% responder” value came out at 20%.
In the same order, the values of “146 (LLVIDTELGRLGMQI; Immunogenic fragment) [compound 146]” are 54 SFC/donor and 20%.
On to “49 (KGIIPGIKVDTGVVT; Immunogenic fragment) [compound 49]”, for which the SFC/donor was 83 SFC/donor and the “% responder” value was determined as 10%.
As for “132 (GKPYYQFIYTTNNML; Immunogenic fragment) [compound 132]”, the SFC/donor is recorded as 44 SFC/donor and the “% responder” value is listed as 15%.
As for “103 (QLHYNLHNLYSLSMA; Immunogenic fragment) [compound 103]”, the SFC/donor was found to be 69 SFC/donor and the “% responder” value is 5%.
On to “78 (ELTLGANQPISSLKN; Immunogenic fragment) [compound 78]”, for which the SFC/donor is listed as 6 SFC/donor and the “% responder” value was 5%.
